{"source": "patent US20240132514A1", "about": "“PYRIDINE DERIVATIVES AS MODULATORS OF SORTILIN ACTIVITY” (Insusense ApS, priority 2021, published 2024)", "molecular_target": "human full length sortilin (Homo sapiens (Human), UniProt Q99523)", "sequence (Q99523 78-755)": "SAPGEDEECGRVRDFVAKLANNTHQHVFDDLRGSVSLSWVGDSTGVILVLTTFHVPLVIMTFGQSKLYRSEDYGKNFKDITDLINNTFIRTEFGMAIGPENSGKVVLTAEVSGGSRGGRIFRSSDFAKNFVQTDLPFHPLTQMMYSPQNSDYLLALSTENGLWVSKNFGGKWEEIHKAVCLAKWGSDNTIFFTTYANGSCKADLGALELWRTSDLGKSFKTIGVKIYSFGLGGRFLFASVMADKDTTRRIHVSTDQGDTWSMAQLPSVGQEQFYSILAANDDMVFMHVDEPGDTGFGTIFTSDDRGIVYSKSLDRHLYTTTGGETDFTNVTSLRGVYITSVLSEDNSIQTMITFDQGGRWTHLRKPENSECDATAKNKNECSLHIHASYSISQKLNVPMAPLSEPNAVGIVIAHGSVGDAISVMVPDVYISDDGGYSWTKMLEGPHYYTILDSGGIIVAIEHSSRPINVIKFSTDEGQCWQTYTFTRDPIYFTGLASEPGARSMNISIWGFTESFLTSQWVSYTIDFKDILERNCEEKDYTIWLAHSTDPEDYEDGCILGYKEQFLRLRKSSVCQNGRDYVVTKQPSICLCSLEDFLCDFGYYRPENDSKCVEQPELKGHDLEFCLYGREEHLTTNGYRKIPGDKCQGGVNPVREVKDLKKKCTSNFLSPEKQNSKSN", "assay": "Human sortilin neurotensin scintillation proximity (SPA) binding assay", "conditions": "for IC50: 150 nM His-tagged human full length sortilin, SPA", "description": "NTS, which is a 13 amino acid neuropeptide, is a sortilin ligand. The IC50 is a measure of the amount of the compound required to inhibit the binding of NTS to sortilin by 50%. The skilled person will recognise that the lower the IC50 value, the less of the compound needed to achieve the desired effect, and as a result, the chances of undesirable off-target effects are reduced.\nThe compound affinity was determined by measuring the inhibition of ^3H-neurotensin and/or ^125I-neurotensin binding to human full length sortilin using a Scintillation Proximity Assay (SPA) format.\nThe human sortilin SPA binding assay was performed in a total volume of 40 μl in 50 mM HEPES pH 7.4 assay buffer containing 100 mM NaCl, 2.0 mM CaCl2, 0.1% (v:v) BSA and 0.1% (v:v)Tween-20. Varying concentration of test compounds where pre-incubated for 30 min at RT with 150 nM of c-terminal hexahistidine- human full length Sortilin (RD Systems). […] 0.1 mg PVT copper HIS-tag imaging beads (Perkin Elmer) was added and the plate was agitated at 400 rpm in the dark for 1 hr. The SPA beads were allowed a minimum 2 hours settling time before the plate was read on a Hidex Sense 425-301 scintillation reader with a 45 sec exposure time. Concentration-response evaluation of test compounds was performed with 8 different concentrations of compound (covering 3 decades). […] The compound potency results were converted to inhibition constant Ki values (nM) derived from calculated IC50 values converted to Ki values using the Cheng-Prusoff equation (Ki=IC50/(I+(L/Kd))).", "key": {"[1]": {"conditions": "5 nM [3H]-Neurotensin radioligand, read-out: hSortilin NTS Binding IC50 (nM) [3H] neurotensin"}}, "note": "Read-outs that look alike come from different tables or passages of the source."}
{"smiles": "O=C(O)c1cc(C(F)(F)F)ccc1C(=O)Nc1cccc(CO)n1", "note": "[Example 3, 2-{[6-(hydroxymethyl)pyridin-2-yl]carbamoyl}-5-(trifluoromethyl)benzoic acid]", "values": [{"measurement": "IC50", "setting": "[1]", "value": 340, "unit": "nM"}, {"measurement": "Ki", "setting": "derived from IC50 using the Cheng-Prusoff equation, Kd of neurotensin […], read-out: hSortilin Ki", "value": 340, "unit": "nM"}]}
{"smiles": "COCc1cccc(NC(=O)c2ccc(C(F)(F)F)cc2C(=O)O)n1", "note": "[Example 24, 2-{[6-(methoxymethyl)pyridin-2-yl]carbamoyl}-5-(trifluoromethyl)benzoic acid]", "values": [{"measurement": "IC50", "setting": "[1]", "value": 725, "unit": "nM"}]}
{"smiles": "O=C(O)c1cc(C(F)(F)F)ccc1C(=O)Nc1ccc2c(n1)COCC2", "note": "[Example 2, 2-({5H,6H,8H-pyrano[3,4-b]pyridin-2-yl}carbamoyl)-5-(trifluoromethyl)benzoic acid]", "values": [{"measurement": "IC50", "setting": "0.35 nM [125I]-Neurotensin radioligand, read-out: hSortilin NTS binding IC50 (nM) [125I] neurotensin", "value": 105, "unit": "nM"}, {"measurement": "IC50", "setting": "[1]", "value": 60, "unit": "nM"}]}
